Test results: the NIST ThermoML archive (doi:10.1021/acs.jced.8b00554)

Assays:
[1] = refractive index (Na D-line) (dimensionless); conditions: 298.15 K; 101.33 kPa; Liquid; Standard Abbe refractometry
[2] = Liquid, Vibrating tube method

CCCCCCCC [octane]
Conditions | refractive index
[1] | 1.398

[2]
Conditions | mass density [kg/m3]
313.15 K, 100 kPa | 686.05
313.15 K, 1030 kPa | 687.19
313.15 K, 1950 kPa | 688.13
313.15 K, 2950 kPa | 689.08
313.15 K, 3960 kPa | 690
313.15 K, 4960 kPa | 690.87
313.15 K, 5970 kPa | 691.78
313.15 K, 6970 kPa | 692.65
313.15 K, 7980 kPa | 693.54
313.15 K, 8980 kPa | 694.38
313.15 K, 9990 kPa | 695.26
313.15 K, 11030 kPa | 696.11
313.15 K, 11950 kPa | 696.94
313.15 K, 12950 kPa | 697.75
313.15 K, 13960 kPa | 698.56
313.15 K, 14960 kPa | 699.37
313.15 K, 15970 kPa | 700.18
313.15 K, 16970 kPa | 700.99
313.15 K, 17980 kPa | 701.77
313.15 K, 18980 kPa | 702.53
313.15 K, 19990 kPa | 703.31
323.15 K, 100 kPa | 677.56
323.15 K, 950 kPa | 678.99
323.15 K, 1960 kPa | 680.02
323.15 K, 2970 kPa | 681.01
323.15 K, 3980 kPa | 681.99
323.15 K, 4980 kPa | 682.97
323.15 K, 5980 kPa | 683.91
323.15 K, 6990 kPa | 684.86
323.15 K, 7990 kPa | 685.78
323.15 K, 9000 kPa | 686.69
323.15 K, 10090 kPa | 687.59
323.15 K, 10950 kPa | 688.51
323.15 K, 11960 kPa | 689.4
323.15 K, 12970 kPa | 690.29
323.15 K, 13980 kPa | 691.16
323.15 K, 14980 kPa | 691.98
323.15 K, 15980 kPa | 692.86
323.15 K, 16990 kPa | 693.68
323.15 K, 17990 kPa | 694.53
323.15 K, 19000 kPa | 695.33
323.15 K, 20090 kPa | 696.18
333.15 K, 100 kPa | 669.13
333.15 K, 1050 kPa | 670.67
333.15 K, 1940 kPa | 671.75
333.15 K, 2950 kPa | 672.81
333.15 K, 3950 kPa | 673.87
333.15 K, 4960 kPa | 674.91
333.15 K, 5960 kPa | 675.95
333.15 K, 6960 kPa | 676.93
333.15 K, 7990 kPa | 677.93
333.15 K, 8990 kPa | 678.93
333.15 K, 10000 kPa | 679.89
333.15 K, 11050 kPa | 680.86
333.15 K, 11940 kPa | 681.81
333.15 K, 12950 kPa | 682.71
333.15 K, 13950 kPa | 683.67
333.15 K, 14960 kPa | 684.58
333.15 K, 15960 kPa | 685.48
333.15 K, 16960 kPa | 686.34
333.15 K, 17990 kPa | 687.26
333.15 K, 18990 kPa | 688.1
333.15 K, 20000 kPa | 688.97
343.15 K, 100 kPa | 661.02
343.15 K, 960 kPa | 662.23
343.15 K, 1970 kPa | 663.39
343.15 K, 2980 kPa | 664.55
343.15 K, 3980 kPa | 665.65
343.15 K, 4990 kPa | 666.79
343.15 K, 5990 kPa | 667.86
343.15 K, 7000 kPa | 668.94
343.15 K, 8010 kPa | 670.02
343.15 K, 9010 kPa | 671.05
343.15 K, 10100 kPa | 672.12
343.15 K, 10960 kPa | 673.13
343.15 K, 11970 kPa | 674.15
343.15 K, 12980 kPa | 675.12
343.15 K, 13980 kPa | 676.13
343.15 K, 14990 kPa | 677.1
343.15 K, 15990 kPa | 678.03
343.15 K, 17000 kPa | 678.97
343.15 K, 18010 kPa | 679.93
343.15 K, 19010 kPa | 680.86
343.15 K, 20100 kPa | 681.78
353.15 K, 100 kPa | 652.22
353.15 K, 1060 kPa | 653.65
353.15 K, 1940 kPa | 654.91
353.15 K, 2950 kPa | 656.12
353.15 K, 3960 kPa | 657.35
353.15 K, 4960 kPa | 658.54
353.15 K, 5960 kPa | 659.71
353.15 K, 6970 kPa | 660.9
353.15 K, 7980 kPa | 662.03
353.15 K, 8980 kPa | 663.17
353.15 K, 9980 kPa | 664.24
353.15 K, 11060 kPa | 665.33
353.15 K, 11940 kPa | 666.44
353.15 K, 12950 kPa | 667.49
353.15 K, 13960 kPa | 668.52
353.15 K, 14960 kPa | 669.56
353.15 K, 15960 kPa | 670.6
353.15 K, 16970 kPa | 671.6
353.15 K, 17980 kPa | 672.57
353.15 K, 18980 kPa | 673.56
353.15 K, 19980 kPa | 674.52
363.15 K, 100 kPa | 643.71
363.15 K, 950 kPa | 644.91
363.15 K, 1960 kPa | 646.3
363.15 K, 2970 kPa | 647.63
363.15 K, 3970 kPa | 648.92
363.15 K, 4980 kPa | 650.23
363.15 K, 5980 kPa | 651.49
363.15 K, 6990 kPa | 652.73
363.15 K, 7990 kPa | 653.97
363.15 K, 8990 kPa | 655.15
363.15 K, 10090 kPa | 656.34
363.15 K, 10950 kPa | 657.54
363.15 K, 11960 kPa | 658.66
363.15 K, 12970 kPa | 659.79
363.15 K, 13970 kPa | 660.94
363.15 K, 14980 kPa | 662.01
363.15 K, 15980 kPa | 663.09
363.15 K, 16990 kPa | 664.19
363.15 K, 17990 kPa | 665.21
363.15 K, 18990 kPa | 666.28
363.15 K, 20090 kPa | 667.28
